Source: ChEMBL document CHEMBL1144350, “Synthesis and evaluation of imidazolylmethylenetetrahydronaphthalenes and imidazolylmethyleneindanes: potent inhibitors of aldosterone synthase” (J Med Chem, 2005)

Legend:
[1] = biological target: T1, Steroid 17-alpha-hydroxylase/17,20 lyase (Homo sapiens, UniProt P05093); assay: In vitro inhibition against human […] cytochrome P450 17 expressed in Escherichia coli with 2.5 uM progesterone
T1 sequence (P05093 whole entry): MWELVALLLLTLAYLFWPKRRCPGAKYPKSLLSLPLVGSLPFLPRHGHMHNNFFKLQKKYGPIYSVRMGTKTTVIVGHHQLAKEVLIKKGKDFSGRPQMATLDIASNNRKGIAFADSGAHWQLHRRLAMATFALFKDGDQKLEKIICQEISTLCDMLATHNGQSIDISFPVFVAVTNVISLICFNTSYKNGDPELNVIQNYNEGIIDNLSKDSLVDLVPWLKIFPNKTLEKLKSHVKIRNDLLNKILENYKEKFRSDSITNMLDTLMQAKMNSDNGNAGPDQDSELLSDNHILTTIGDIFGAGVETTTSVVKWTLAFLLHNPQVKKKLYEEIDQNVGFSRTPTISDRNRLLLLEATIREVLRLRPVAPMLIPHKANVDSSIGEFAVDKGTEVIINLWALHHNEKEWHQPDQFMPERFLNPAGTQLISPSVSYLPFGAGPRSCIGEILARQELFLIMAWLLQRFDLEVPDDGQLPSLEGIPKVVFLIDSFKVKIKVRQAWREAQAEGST

[2] = biological target: T2, Cytochrome P450 11B2, mitochondrial (Homo sapiens, UniProt P19099); assay: In vitro inhibition of human cytochrome P450 11B2 expressed in Schizosaccharomyces pombe with 500 nM deoxy-corticosterone
T2 sequence (P19099 whole entry): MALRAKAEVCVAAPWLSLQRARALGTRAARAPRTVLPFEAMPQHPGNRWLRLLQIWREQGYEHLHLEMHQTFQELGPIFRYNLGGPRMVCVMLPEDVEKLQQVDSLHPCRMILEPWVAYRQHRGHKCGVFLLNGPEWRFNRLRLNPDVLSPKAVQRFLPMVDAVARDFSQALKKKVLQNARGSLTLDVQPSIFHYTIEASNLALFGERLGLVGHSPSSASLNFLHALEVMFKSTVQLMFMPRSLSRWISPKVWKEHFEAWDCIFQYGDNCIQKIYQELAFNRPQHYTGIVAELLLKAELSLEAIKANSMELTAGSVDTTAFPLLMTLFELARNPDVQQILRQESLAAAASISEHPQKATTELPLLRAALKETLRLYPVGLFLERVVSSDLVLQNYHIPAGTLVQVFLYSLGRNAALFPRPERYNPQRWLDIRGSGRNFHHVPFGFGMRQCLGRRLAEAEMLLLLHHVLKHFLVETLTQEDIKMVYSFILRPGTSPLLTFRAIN

[3] = biological target: T3, Cytochrome P450 11B1, mitochondrial (Bos taurus, UniProt P15150); assay: In vitro inhibition against bovine cytochrome P450 11B with 200 uM corticosterone; settings: cyp11b
T3 sequence (P15150 whole entry): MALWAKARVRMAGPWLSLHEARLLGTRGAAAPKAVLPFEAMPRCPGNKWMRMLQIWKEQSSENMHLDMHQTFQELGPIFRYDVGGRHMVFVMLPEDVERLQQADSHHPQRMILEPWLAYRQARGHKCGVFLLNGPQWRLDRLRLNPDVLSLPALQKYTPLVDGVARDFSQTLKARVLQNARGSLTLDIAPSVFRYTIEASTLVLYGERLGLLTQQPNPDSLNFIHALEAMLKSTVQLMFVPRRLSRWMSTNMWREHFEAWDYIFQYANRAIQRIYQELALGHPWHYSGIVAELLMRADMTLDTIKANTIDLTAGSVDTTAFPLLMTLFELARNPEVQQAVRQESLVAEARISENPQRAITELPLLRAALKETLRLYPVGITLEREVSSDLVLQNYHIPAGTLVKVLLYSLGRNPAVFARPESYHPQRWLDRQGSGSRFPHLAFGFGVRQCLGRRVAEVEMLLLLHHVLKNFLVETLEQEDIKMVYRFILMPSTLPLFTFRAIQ

Aromatase = biological target: T4, Aromatase (Homo sapiens, UniProt P11511)
T4 sequence (P11511 whole entry): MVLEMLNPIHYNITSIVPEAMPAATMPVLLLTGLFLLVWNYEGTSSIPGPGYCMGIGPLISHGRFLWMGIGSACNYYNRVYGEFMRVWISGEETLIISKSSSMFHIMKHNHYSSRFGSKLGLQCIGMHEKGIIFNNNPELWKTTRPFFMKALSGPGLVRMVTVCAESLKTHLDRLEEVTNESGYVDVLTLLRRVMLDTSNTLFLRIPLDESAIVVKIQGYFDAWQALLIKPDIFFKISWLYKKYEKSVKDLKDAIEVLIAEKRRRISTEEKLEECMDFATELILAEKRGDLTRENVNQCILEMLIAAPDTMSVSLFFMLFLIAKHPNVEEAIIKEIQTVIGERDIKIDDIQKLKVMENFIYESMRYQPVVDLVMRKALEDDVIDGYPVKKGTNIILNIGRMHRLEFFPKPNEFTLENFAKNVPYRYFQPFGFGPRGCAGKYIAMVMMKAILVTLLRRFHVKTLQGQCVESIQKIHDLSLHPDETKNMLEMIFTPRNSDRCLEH
Description: In vitro inhibitory concentration against human placental cytochrome P450 19 with 2.5 uM testosterone

[4] = biological target: T2, Cytochrome P450 11B2, mitochondrial; assay: In vitro inhibition of [14C]deoxycorticosterone binding to human cytochrome P450 11B2 expressed in hamster V79 MZh cells; format: cell-based
[5] = biological target: T5, Cytochrome P450 11B1, mitochondrial (Homo sapiens, UniProt P15538); assay: In vitro inhibition of [14C]deoxycorticosterone binding to human cytochrome P450 11B1 expressed in hamster V79 MZh cells; format: cell-based
T5 sequence (P15538 whole entry): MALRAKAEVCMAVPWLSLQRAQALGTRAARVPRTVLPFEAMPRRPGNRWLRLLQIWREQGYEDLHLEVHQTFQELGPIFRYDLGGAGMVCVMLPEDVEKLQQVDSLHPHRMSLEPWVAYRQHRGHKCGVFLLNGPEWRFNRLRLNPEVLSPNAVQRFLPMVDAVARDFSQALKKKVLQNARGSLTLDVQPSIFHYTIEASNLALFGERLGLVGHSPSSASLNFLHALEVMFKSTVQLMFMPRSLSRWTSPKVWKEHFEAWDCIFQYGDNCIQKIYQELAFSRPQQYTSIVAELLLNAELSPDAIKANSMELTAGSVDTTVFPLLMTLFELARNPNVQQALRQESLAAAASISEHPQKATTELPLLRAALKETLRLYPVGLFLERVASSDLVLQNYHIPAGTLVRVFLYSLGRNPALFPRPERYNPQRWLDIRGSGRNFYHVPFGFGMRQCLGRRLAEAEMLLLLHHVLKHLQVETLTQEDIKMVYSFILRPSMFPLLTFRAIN

IC50 [5] | SMILES | Inhibition [1] | Inhibition [2] | Inhibition [3] | IC50 (Aromatase) | IC50 [4]
– | Clc1ccc2c(c1)CC/C2=C/c1c[nH]cn1 | 26% | 80% | 87% | 39 nM | –
– | Clc1ccc2c(c1)/C(=C/c1c[nH]cn1)CCC2 | 24% | 48% | 66% | 120 nM | 47.3 nM
– | N#Cc1ccc2c(c1)/C(=C\c1c[nH]cn1)CCC2 | 3% | 23% | 97% | 810 nM | –
12.3 nM | N#Cc1ccc2c(c1)CC/C2=C/c1ncc[nH]1 | 4% | 65% | 100% | 15 nM | 35.7 nM
– | Fc1ccc2c(c1)CC/C2=C/c1c[nH]cn1 | 11% | 58% | 64% | – | –
– | C(=C1\CCCc2ccccc21)/c1c[nH]cn1 | 13% | 82% | 95% | 190 nM | –
– | N#Cc1ccc2c(c1)/C(=C/c1cnc[nH]1)CCC2 | 2% | 8% | 62% | 970 nM | –
– | Brc1ccc2c(c1)CC/C2=C/c1c[nH]cn1 | 15% | 76% | 88% | – | 10.3 nM
